Data set [1] has as its target T1, Recombinant human PI3Kγ (full length human PI3K p110γ) (Homo sapiens, UniProt P48736).
T1 construct: full length human PI3K p110γ fused with a His6-tag at the C-terminus; His6 (C); purchased ALEXIS BIOCHEMICALS #201-055-C010; host or cells: S. frugiperda 9 insect cells
Put plainly: Kinase assay of PI3Kγ (solid-phase lipid kinase assay). It is filed as biochemical. As to conditions: in vitro PI3K-γ inhibitory activity, class symbols A-D; read-out: in vitro PI3K-gamma.

pIC50: −log10 of the molar value.

T1 sequence (P48736 whole entry, the tested form may be a part): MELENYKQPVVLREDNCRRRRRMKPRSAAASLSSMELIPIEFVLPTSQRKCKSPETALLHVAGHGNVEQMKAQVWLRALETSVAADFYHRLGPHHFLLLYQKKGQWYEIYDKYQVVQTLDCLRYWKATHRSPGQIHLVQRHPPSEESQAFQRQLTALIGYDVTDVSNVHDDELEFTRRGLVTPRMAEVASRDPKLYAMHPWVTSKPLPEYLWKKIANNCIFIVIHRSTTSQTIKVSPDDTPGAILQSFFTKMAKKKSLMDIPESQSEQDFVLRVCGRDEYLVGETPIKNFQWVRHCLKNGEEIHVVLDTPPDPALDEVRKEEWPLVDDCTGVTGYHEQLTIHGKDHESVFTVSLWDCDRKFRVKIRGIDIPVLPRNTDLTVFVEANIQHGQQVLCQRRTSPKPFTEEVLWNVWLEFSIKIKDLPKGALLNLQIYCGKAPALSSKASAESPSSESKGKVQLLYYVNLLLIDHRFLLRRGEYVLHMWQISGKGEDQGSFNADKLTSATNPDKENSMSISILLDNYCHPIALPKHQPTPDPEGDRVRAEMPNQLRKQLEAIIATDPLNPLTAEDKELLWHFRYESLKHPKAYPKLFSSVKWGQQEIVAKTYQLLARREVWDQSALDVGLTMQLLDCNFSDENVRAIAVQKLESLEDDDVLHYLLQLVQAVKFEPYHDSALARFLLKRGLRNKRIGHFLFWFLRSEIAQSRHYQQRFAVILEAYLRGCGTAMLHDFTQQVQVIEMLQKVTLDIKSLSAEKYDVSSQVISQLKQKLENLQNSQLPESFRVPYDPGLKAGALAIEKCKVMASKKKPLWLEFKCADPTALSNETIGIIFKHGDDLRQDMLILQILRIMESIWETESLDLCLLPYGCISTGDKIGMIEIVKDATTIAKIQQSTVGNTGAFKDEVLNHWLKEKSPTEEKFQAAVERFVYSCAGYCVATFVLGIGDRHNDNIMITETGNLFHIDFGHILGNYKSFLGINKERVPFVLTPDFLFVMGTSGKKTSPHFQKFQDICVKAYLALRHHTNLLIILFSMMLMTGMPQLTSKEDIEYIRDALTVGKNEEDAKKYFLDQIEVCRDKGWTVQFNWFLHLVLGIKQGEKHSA

In the case of `COc1cc(OC)cc(C(=O)NC2=Nc3ccccc3C3=NCCN23)c1` [Example 2-239], the melting point was 330 °C (dec.). Moreover, the pIC50 in data set [1] is < 5.70.
Consider `COc1cc(C(=O)NC2=Nc3ccccc3C3=NCCN23)cc(OC)c1OC.Cl` [Example 2-240], for which the melting point was 291 °C (dec.). Further, the pIC50 in data set [1] is < 5.70.
Regarding `COc1cc(C(=O)NC2=Nc3ccccc3C3=NCCN23)cc(OC)c1C` [Example 2-241], the melting point was 248 °C (dec.). The pIC50 in data set [1] is < 5.70.
The like results for `CSc1ccc(C(=O)NC2=Nc3ccccc3C3=NCCN23)cc1` [Example 2-243] were, in that order, 169 to 170 °C and < 5.70.
As to `CS(=O)(=O)c1ccc(C(=O)NC2=Nc3ccccc3C3=NCCN23)cc1` [Example 2-245], the melting point was 278 °C (dec.). Besides, the pIC50 in data set [1] was < 5.70.
The matching figures for `NS(=O)(=O)c1ccc(C(=O)NC2=Nc3ccccc3C3=NCCN23)cc1` [Example 2-247]: 278 °C (dec.) and 5.70 to 6.30.
In the case of `NS(=O)(=O)c1ccc(C(=O)NC2=Nc3ccccc3C3=NCCN23)c(Cl)c1` [Example 2-249], the melting point was 240 °C (dec.). For the same molecule, in data set [1], the pIC50 was < 5.70.
The matching figures for `O=C(NC1=Nc2ccccc2C2=NCCN12)c1ccccc1[N+](=O)[O-].O=C(O)C(F)(F)F` [Example 2-251]: 198 to 200 °C and < 5.70.
As for `O=C(NC1=Nc2ccccc2C2=NCCN12)c1cccc([N+](=O)[O-])c1` [Example 2-252], the melting point fell in the range of 265 to 267 °C. Besides, the pIC50 in data set [1] is < 5.70.
The like results for `O=C(NC1=Nc2ccccc2C2=NCCN12)c1ccc([N+](=O)[O-])cc1` [Example 2-254] were, in that order, 279 to 281 °C and < 5.70.
The matching figures for `N#Cc1ccc(C(=O)NC2=Nc3ccccc3C3=NCCN23)cc1.O=C(O)C(F)(F)F` [Example 2-256]: 248 to 250 °C and < 5.70.
With `Nc1ccccc1C(=O)NC1=Nc2ccccc2C2=NCCN12.O=C(O)C(F)(F)F` [Example 2-257], the melting point was 175 °C (dec.). In addition, the pIC50 in data set [1] was < 5.70.
The matching figures for `CN(C)c1cccc(C(=O)NC2=Nc3ccccc3C3=NCCN23)c1` [Example 2-258]: 188 to 190 °C and < 5.70.
With `CN(C)c1ccc(C(=O)NC2=Nc3ccccc3C3=NCCN23)cc1.O=C(O)C(F)(F)F` [Example 2-260], the melting point was 240 °C (dec.). Besides, in data set [1], the pIC50 was < 5.70.
The matching figures for `CN1CCN(c2ccc(C(=O)NC3=Nc4ccccc4C4=NCCN34)cc2)CC1` [Example 2-261]: 218 to 222 °C and < 5.70.
The matching figures for `CC(=O)Nc1cccc(C(=O)NC2=Nc3ccccc3C3=NCCN23)c1.O=C(O)C(F)(F)F` [Example 2-262]: 253 °C (dec.) and < 5.70.
As to `CN(C=O)c1ccc(C(=O)NC2=Nc3ccccc3C3=NCCN23)cc1` [Example 2-263], the melting point lay in the range of 208 to 210 °C. The pIC50 in data set [1] was < 5.70.
For the molecule `CC(C)(C)OC(=O)Nc1cccc(C(=O)NC2=Nc3ccccc3C3=NCCN23)c1` [Example 2-265], the melting point was 280 °C (dec.). Moreover, in data set [1], the pIC50 is < 5.70.
Molecule `O=C(NC1=Nc2ccccc2C2=NCCN12)c1ccc(-n2cccc2)cc1` [Example 2-266] had a melting point of 218 to 220 °C. Besides, the pIC50 in data set [1] was < 5.70.
For the molecule `O=C(NC1=Nc2ccccc2C2=NCCN12)c1ccc(-n2ccnc2)cc1` [Example 2-268], the melting point is 267 °C (dec.). Besides, the pIC50 in data set [1] is < 5.70.
`O=C(NC1=Nc2ccccc2C2=NCCN12)c1ccc(-n2cccn2)cc1` [Example 2-270] came in with a melting point of 209 to 211 °C. The pIC50 in data set [1] was < 5.70.
The matching figures for `COC(=O)c1cccc(C(=O)NC2=Nc3ccccc3C3=NCCN23)c1` [Example 2-272]: 224 to 226 °C and < 5.70.
The matching figures for `COC(=O)c1ccc(C(=O)NC2=Nc3ccccc3C3=NCCN23)cc1` [Example 2-273]: 253 to 255 °C and < 5.70.
The matching figures for `CCOC(=O)c1cc(C(=O)NC2=Nc3ccccc3C3=NCCN23)cc(C(=O)OCC)c1` [Example 2-274]: 289 °C (dec.) and < 5.70.
Take `O=C(NC1=Nc2ccccc2C2=NCCN12)c1ccccn1` [Example 2-276]: the melting point lay within 204 to 205 °C. Moreover, in data set [1], the pIC50 was 5.70 to 6.30.
In turn, `O=C(NC1=Nc2ccccc2C2=NCCN12)c1ccncc1` [Example 2-278] yielded a melting point of 224 to 225 °C. Further, the pIC50 in data set [1] is 5.70 to 6.30.
The matching figures for `O=C(NC1=Nc2ccccc2C2=NCCN12)c1ccc(C(F)(F)F)nc1` [Example 2-280]: 219 to 220 °C and < 5.70.
The matching figures for `Cl.O=C(NC1=Nc2ccccc2C2=NCCN12)c1ccc(C(F)(F)F)nc1` [Example 2-281]: > 250 °C and 5.70 to 6.30.
As for `CN(C)c1ccc(C(=O)NC2=Nc3ccccc3C3=NCCN23)cn1` [Example 2-282], the melting point is 249 °C (dec.). Also, in data set [1], the pIC50 is < 5.70.
For `CN(C)c1ccc(C(=O)NC2=Nc3ccccc3C3=NCCN23)cn1.Cl` [Example 2-283], the melting point was 311 °C (dec.). The pIC50 in data set [1] is 5.70 to 6.30.
The like results for `Cl.O=C(NC1=Nc2ccccc2C2=NCCN12)c1cccnc1O` [Example 2-284] were, in that order, 346 °C (dec.) and < 5.70.
The like results for `COc1ncccc1C(=O)NC1=Nc2ccccc2C2=NCCN12` [Example 2-285] were, in that order, 198 to 199 °C and 5.70 to 6.30.
Turning to `COc1ccc(C(=O)NC2=Nc3ccccc3C3=NCCN23)c(OC)n1` [Example 2-286], the melting point fell in the range of 244 to 245 °C. In data set [1], the pIC50 was < 5.70.
As for `COc1ccc(C(=O)NC2=Nc3ccccc3C3=NCCN23)c(OC)n1.Cl` [Example 2-287], the melting point is 210 °C (dec.). Also, in data set [1], the pIC50 is 5.70 to 6.30.
The like results for `CSc1ncccc1C(=O)NC1=Nc2ccccc2C2=NCCN12` [Example 2-288] were, in that order, 233 to 234 °C and < 5.70.
Take `CSc1ncccc1C(=O)NC1=Nc2ccccc2C2=NCCN12.Cl` [Example 2-289]: the melting point was 298 to 299 °C. Moreover, the pIC50 in data set [1] is 5.70 to 6.30.
The like results for `Cc1ccc(C(=O)NC2=Nc3ccccc3C3=NCCN23)c(Cl)n1` [Example 2-290] were, in that order, 213 to 214 °C and 6.30 to 7.00.
In turn, `O=C(NC1=Nc2ccccc2C2=NCCN12)c1ccc(Cl)nc1` [Example 2-291] showed a melting point of 246 to 247 °C. The pIC50 in data set [1] is 6.30 to 7.00.
`O=C(NC1=Nc2ccccc2C2=NCCN12)c1cnccn1` [Example 2-292] gave a melting point of 267 to 268 °C. In data set [1], the pIC50 was 5.70 to 6.30.
Consider `Cc1cnc(C(=O)NC2=Nc3ccccc3C3=NCCN23)cn1` [Example 2-294], for which the melting point was 257 °C (dec.). Further, in data set [1], the pIC50 was 5.70 to 6.30.

Broadly, the melting point is the temperature of the solid-liquid transition.

Source of the values: patent US7511041B2, “Fused azole-pyrimidine derivatives” (Bayer Pharmaceuticals Corporation, priority 2002, dated 2009).
